The results in this text go back to ChEMBL document CHEMBL1909046, “DrugMatrix in vitro pharmacology data”.

One series has as its target Melanocortin receptor 3 (Homo sapiens, UniProt P41968). Format: cell membranes, HEK293, Membrane. To be noted: hek293. Note: in other assays of this panel Not Active means under 50% inhibition at 10 µM.
The target of the next series is Cytochrome P450 2C19 (Homo sapiens, UniProt P33261). The conditions noted are these: bti-tn-5b1-4. Note: in other assays of this panel Not Active means under 50% inhibition at 10 µM.
Cytochrome P450 2C19, sequence (P33261 whole entry): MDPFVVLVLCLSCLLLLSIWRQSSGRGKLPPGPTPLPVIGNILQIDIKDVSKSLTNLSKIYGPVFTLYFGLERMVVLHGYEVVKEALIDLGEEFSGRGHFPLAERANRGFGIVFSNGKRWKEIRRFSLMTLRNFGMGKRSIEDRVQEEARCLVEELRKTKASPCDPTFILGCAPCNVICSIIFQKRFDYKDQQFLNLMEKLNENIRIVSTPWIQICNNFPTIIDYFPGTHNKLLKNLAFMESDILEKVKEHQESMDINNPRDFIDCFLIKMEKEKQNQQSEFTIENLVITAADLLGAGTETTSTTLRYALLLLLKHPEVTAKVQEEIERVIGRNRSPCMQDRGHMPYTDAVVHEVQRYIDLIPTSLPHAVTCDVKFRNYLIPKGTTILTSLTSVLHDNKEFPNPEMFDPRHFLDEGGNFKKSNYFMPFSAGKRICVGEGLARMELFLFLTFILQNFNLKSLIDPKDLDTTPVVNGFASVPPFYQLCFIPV
Series [1] can be described thus: DRUGMATRIX: Sigma2 radioligand binding (ligand: [3H] Ifenprodil). Format: cell membranes, Rattus norvegicus, Wistar, Brain, Membrane. To be noted: Not Active = under 50% inhibition at 10 µM.
Series [2] concerns the target Beta-2 adrenergic receptor (Homo sapiens, UniProt P07550). Nature of the series: DRUGMATRIX: Adrenergic beta2 radioligand binding (ligand: [3H] CGP-12177). The class given is cell membranes, CHO, Membrane. To be noted: cho; Not Active = under 50% inhibition at 10 µM.
For a further series, the target named is T1, Interstitial collagenase (Homo sapiens, UniProt P03956).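 Note: MMP-1 enzyme inhibition assay using a peptide substrate; in other assays of this panel Not Active means under 50% inhibition at 10 µM.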
T1 sequence (P03956 whole entry): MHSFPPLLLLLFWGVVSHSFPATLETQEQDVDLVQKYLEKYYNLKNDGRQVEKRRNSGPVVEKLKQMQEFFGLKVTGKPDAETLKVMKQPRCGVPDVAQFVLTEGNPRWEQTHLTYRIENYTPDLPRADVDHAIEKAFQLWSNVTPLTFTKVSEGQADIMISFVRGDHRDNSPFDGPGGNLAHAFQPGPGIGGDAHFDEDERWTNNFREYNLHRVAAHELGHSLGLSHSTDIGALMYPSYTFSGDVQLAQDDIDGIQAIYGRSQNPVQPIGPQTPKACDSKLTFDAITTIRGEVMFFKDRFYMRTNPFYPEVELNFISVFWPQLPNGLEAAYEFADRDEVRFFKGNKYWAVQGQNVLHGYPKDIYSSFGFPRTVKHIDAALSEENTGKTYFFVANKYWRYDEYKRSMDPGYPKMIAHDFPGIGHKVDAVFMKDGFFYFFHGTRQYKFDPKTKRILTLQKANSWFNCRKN
Description: biochemical. Format: tissue-based, Rheumatoid synovial fibroblasts.

Series [3] has as its target T2, Nitric oxide synthase, inducible (Mus musculus, UniProt P29477).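 Note: inhibition of iNOS enzyme activity measured with L-arginine as substrate; in other assays of this panel Not Active means under 50% inhibition at 10 µM.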
T2 sequence (P29477 whole entry): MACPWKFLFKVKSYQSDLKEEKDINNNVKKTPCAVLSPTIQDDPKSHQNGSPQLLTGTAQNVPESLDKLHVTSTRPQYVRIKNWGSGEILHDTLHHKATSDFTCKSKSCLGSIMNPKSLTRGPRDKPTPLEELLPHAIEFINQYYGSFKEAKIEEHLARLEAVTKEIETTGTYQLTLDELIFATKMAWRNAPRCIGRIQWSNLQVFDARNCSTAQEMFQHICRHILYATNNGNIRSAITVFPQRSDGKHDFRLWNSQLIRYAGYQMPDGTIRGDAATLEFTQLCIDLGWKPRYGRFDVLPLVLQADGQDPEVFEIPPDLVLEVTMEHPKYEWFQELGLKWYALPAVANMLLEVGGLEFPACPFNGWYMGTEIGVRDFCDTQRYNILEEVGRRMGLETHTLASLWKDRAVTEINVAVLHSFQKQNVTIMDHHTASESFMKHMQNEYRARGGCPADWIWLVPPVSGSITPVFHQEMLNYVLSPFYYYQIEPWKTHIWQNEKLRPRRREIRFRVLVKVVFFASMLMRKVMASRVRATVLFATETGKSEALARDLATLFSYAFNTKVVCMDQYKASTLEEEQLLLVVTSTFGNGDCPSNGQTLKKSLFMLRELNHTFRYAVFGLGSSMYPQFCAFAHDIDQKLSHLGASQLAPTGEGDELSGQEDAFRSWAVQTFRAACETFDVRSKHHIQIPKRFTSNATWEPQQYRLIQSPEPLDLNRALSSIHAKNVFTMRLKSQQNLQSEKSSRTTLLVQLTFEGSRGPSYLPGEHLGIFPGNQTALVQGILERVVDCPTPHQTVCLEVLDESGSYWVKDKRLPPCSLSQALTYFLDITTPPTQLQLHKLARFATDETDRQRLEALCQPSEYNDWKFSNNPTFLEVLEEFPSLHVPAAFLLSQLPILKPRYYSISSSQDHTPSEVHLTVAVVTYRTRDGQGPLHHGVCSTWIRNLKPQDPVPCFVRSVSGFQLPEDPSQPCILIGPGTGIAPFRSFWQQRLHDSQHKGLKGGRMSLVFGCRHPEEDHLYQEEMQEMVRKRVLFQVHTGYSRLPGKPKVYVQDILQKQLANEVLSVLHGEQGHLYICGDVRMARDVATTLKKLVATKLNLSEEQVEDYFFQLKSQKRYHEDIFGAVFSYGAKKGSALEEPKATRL
More on the design: species or system Escherichia coli.

The target in series [4] is Delta-type opioid receptor (Homo sapiens, UniProt P41143). Format: cell membranes, HEK293, Membrane. To be noted: hek293. Note: in other assays of this panel Not Active means under 50% inhibition at 10 µM.
Delta-type opioid receptor, sequence (P41143 whole entry): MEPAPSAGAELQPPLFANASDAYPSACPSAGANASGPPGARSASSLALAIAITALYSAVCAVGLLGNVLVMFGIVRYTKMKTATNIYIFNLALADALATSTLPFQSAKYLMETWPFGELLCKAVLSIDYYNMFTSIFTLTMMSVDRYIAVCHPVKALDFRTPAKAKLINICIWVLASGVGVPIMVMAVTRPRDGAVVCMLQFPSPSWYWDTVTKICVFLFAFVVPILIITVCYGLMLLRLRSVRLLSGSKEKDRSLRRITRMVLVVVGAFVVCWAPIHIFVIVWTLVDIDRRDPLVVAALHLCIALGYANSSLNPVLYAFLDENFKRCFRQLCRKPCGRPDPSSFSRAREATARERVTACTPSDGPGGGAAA

Beta-2 adrenergic receptor, sequence (P07550 whole entry): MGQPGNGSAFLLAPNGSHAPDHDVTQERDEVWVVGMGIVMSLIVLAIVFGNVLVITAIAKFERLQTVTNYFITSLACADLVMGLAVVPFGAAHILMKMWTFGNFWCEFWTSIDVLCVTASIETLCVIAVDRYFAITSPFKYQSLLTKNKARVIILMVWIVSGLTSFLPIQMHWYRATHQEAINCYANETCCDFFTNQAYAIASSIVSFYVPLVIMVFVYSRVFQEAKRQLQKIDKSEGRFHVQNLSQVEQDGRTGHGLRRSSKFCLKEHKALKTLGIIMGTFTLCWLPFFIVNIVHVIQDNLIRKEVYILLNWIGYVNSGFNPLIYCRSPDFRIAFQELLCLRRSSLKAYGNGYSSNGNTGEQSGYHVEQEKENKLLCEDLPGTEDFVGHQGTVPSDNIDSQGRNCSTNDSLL
Melanocortin receptor 3, sequence (P41968 whole entry): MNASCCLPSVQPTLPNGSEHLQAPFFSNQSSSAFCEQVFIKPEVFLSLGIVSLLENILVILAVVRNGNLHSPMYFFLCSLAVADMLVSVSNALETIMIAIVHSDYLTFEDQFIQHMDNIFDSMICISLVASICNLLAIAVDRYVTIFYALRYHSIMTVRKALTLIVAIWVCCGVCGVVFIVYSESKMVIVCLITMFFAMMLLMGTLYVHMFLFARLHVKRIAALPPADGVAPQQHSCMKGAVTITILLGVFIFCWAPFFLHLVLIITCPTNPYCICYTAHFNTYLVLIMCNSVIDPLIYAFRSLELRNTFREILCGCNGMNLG

Consider `CC(C)(C#N)c1cc(Cn2cncn2)cc(C(C)(C)C#N)c1` [ANASTROZOLE], for which the 50% inhibitory concentration (IC50) result (against Melanocortin receptor 3; against Cytochrome P450 2C19; in series [1]; in series [2]; against Interstitial collagenase; in series [3]) was “Not Active” in each case. Further, in series [4], the IC50 result was “Not Active”. The Ki result (at Cytochrome P450 2C19; in series [1]) was “Not Active” throughout.
Take `CC(=O)[C@]1(O)Cc2c(O)c3c(c(O)c2[C@@H](O[C@H]2C[C@H](N)[C@H](O)[C@H](C)O2)C1)C(=O)c1ccccc1C3=O` [IDARUBICIN]: the half-inhibitory concentration (IC50) result (against Melanocortin receptor 3; against Cytochrome P450 2C19; in series [1]; in series [2]; on Interstitial collagenase; in series [3]) was “Not Active” each time. The IC50 result in series [4] is “Not Active”. Further, the Ki result (on Cytochrome P450 2C19; in series [1]) was “Not Active” each time.
For the compound `O=C(O)c1ccccc1` [BENZOIC ACID], the IC50 result (at Melanocortin receptor 3; against Cytochrome P450 2C19; in series [1]; in series [2]; on Interstitial collagenase; in series [3]) was “Not Active” each time. In addition, the IC50 entry in series [4] is listed as “Not Active”. Also, the Ki result (on Cytochrome P450 2C19; in series [1]) was “Not Active” in each case.
Regarding `O=C(Nc1ccc(Cl)c(Cl)c1)c1cc(Cl)cc(Cl)c1O` [3,3',4',5-TETRACHLOROSALICYLANILIDE], the IC50 result (against Melanocortin receptor 3; against Cytochrome P450 2C19; in series [1]; in series [2]; at Interstitial collagenase; in series [3]) was “Not Active” each time. Besides, the 50% inhibitory concentration (IC50) entry in series [4] is “Not Active”. Also, the inhibition constant Ki entry (at Cytochrome P450 2C19; in series [1]) was “Not Active” throughout.
On to `OC[C@H]1O[C@@H]2O[C@H]3[C@H](O)[C@@H](O)[C@@H](O[C@H]4[C@H](O)[C@@H](O)[C@@H](O[C@H]5[C@H](O)[C@@H](O)[C@@H](O[C@H]6[C@H](O)[C@@H](O)[C@@H](O[C@H]7[C@H](O)[C@@H](O)[C@@H](O[C@H]1[C@H](O)[C@H]2O)O[C@@H]7CO)O[C@@H]6CO)O[C@@H]5CO)O[C@@H]4CO)O[C@@H]3CO` [ALFADEX], for which the 50% inhibitory concentration (IC50) result (against Melanocortin receptor 3; against Cytochrome P450 2C19; in series [1]; in series [2]; against Interstitial collagenase; in series [3]) was “Not Active” each time. For the same compound, the IC50 result in series [4] was “Not Active”. Further, the Ki entry (on Cytochrome P450 2C19; in series [1]) was “Not Active” each time.
As to `CC(=O)Nc1ccc2c(c1)Cc1ccccc1-2` [2-ACETYLAMINOFLUORENE], the IC50 result (against Melanocortin receptor 3; on Cytochrome P450 2C19; in series [1]; in series [2]; against Interstitial collagenase; in series [3]) was “Not Active” each time. In series [4], the IC50 result is reported as “Not Active”. For the same compound, the Ki result (at Cytochrome P450 2C19; in series [1]) was “Not Active” each time.
On to `CCN1CCN(c2cc3c(cc2F)c(=O)c(C(=O)O)cn3C2CC2)CC1` [ENROFLOXACIN], for which the half-inhibitory concentration (IC50) entry (against Melanocortin receptor 3; on Cytochrome P450 2C19; in series [1]; in series [2]; against Interstitial collagenase; in series [3]) was “Not Active” in each case. In addition, the IC50 result in series [4] was “Not Active”. In addition, the Ki entry (on Cytochrome P450 2C19; in series [1]) was “Not Active” in each case.
Turning to `O=C(O)CO` [GLYCOLIC ACID], the IC50 result (against Melanocortin receptor 3; on Cytochrome P450 2C19; in series [1]; in series [2]; on Interstitial collagenase; in series [3]) was “Not Active” in each case. Besides, the IC50 result in series [4] is listed as “Not Active”. Moreover, the Ki result (at Cytochrome P450 2C19; in series [1]) was “Not Active” in each case.
Turning to `CN(Cc1cc(Br)cc(Br)c1N)C1CCCCC1` [BROMHEXINE], the IC50 entry was “Not Active” against Melanocortin receptor 3; “Not Active” against Cytochrome P450 2C19; 0.059 µM in series [1] (read-out: IC50); “Not Active” in series [2]; “Not Active” at Interstitial collagenase; “Not Active” in series [3]. Further, in series [4], the concentration for half-maximal inhibition (IC50) result is recorded as “Not Active”. Further, the Ki result was “Not Active” at Cytochrome P450 2C19 and 0.036 µM in series [1] (read-out: Ki).
Regarding `CC12CCC(CC1)C(C)(C)O2` [EUCALYPTOL], the IC50 entry (against Melanocortin receptor 3; against Cytochrome P450 2C19; in series [1]; in series [2]; against Interstitial collagenase; in series [3]) was “Not Active” throughout. In series [4], the IC50 result was “Not Active”. Moreover, the Ki entry (on Cytochrome P450 2C19; in series [1]) was “Not Active” throughout.
Take `C[C@@H]1[C@H](O)[C@@H](C)/C=C/C=C/C=C/C=C/C=C/C=C/C=C/[C@H](O[C@@H]2O[C@H](C)[C@@H](O)[C@H](N)[C@@H]2O)C[C@@H]2O[C@](O)(C[C@@H](O)C[C@@H](O)[C@H](O)CC[C@@H](O)C[C@@H](O)CC(=O)O[C@H]1C)C[C@H](O)[C@H]2C(=O)O` [AMPHOTERICIN B]: the IC50 entry (at Melanocortin receptor 3; against Cytochrome P450 2C19; in series [1]; in series [2]; at Interstitial collagenase; in series [3]) was “Not Active” throughout. Besides, the IC50 entry in series [4] is recorded as “Not Active”. The inhibition constant Ki entry (on Cytochrome P450 2C19; in series [1]) was “Not Active” throughout.
As to `Cc1cc(C(C)(C)C)c(O)c(C)c1CC1=NCCN1` [OXYMETAZOLINE], the IC50 entry (against Melanocortin receptor 3; against Cytochrome P450 2C19; in series [1]; in series [2]; on Interstitial collagenase; in series [3]) was “Not Active” in each case. Further, the IC50 result in series [4] was “Not Active”. The Ki entry (on Cytochrome P450 2C19; in series [1]) was “Not Active” in each case.
Take `CC12CCC(CC1=O)C2(C)C` (stereo not given) [CAMPHOR]: the 50% inhibitory concentration (IC50) result (on Melanocortin receptor 3; against Cytochrome P450 2C19; in series [1]; in series [2]; on Interstitial collagenase; in series [3]) was “Not Active” in each case. Besides, the IC50 result in series [4] is “Not Active”. The inhibitory constant (Ki) entry (at Cytochrome P450 2C19; in series [1]) was “Not Active” throughout.
Consider `CCC1(c2ccccc2)C(=O)NC(=O)NC1=O` [PHENOBARBITAL], for which the concentration for half-maximal inhibition (IC50) entry (on Melanocortin receptor 3; at Cytochrome P450 2C19; in series [1]; in series [2]; against Interstitial collagenase; in series [3]) was “Not Active” throughout. Besides, the IC50 entry in series [4] is “Not Active”. The Ki entry (at Cytochrome P450 2C19; in series [1]) was “Not Active” throughout.
As for `C[N+](C)(C)CCOP(=O)([O-])OC[C@H](O)CO`, the IC50 entry (at Melanocortin receptor 3; at Cytochrome P450 2C19; in series [1]; in series [2]; against Interstitial collagenase; in series [3]) was “Not Active” throughout. The IC50 result in series [4] is “Not Active”. The inhibitory constant (Ki) result (on Cytochrome P450 2C19; in series [1]) was “Not Active” throughout.

In general, IC50 refers to the point on the concentration scale where inhibition reaches its midpoint. A word on the Ki: it is a measure of affinity in units of concentration, obtained from inhibition or displacement.
